Source: PMC13576449, “Small-Molecule Activators of PRMT1: Discovery, SAR Analyses, and Proapoptotic Effects in Pancreatic Cancer Cells” (Journal of Medicinal Chemistry, 2026)

Key:
PANC-1 cells = test: CaspaseGlo 3/7 apoptosis assay, PANC-1; type: cell-based, human; settings: 72 h
Protocol: (§1) 6 Effect of small-molecule modulators on gemcitabine-induced apoptosis and tumor growth of PDAC cells. […] After 2 h, gemcitabine (GEM) was added at increasing concentrations (10 and 25 nM) or not (−) for another incubation of 72 h. Subsequently, the luminescence-based caspase3/7 assay was performed. The activity of caspase 3/7 in treated cells was normalized to the activity measured in untreated cells (dark gray bar), which was set to 1 (mean SD, n = 6 for PANC-1 and n = 4 for PaTu8988T; *: p ≤ 0.05, **: p ≤ 0.01, ***: p ≤ 0.001, using the student t-test). […] After 24 h, gemcitabine (GEM, 1 μM) was added (+) or not (−) for another incubation of 48 h. Subsequently, the apoptotic cell fraction was quantified in % by flow cytometry using FITC-labeled Annexin V (AV) and propidium iodide (PI) staining (in B: mean ± SD, n = 6 for PANC-1 and n = 5 for PaTu8988T; **: p ≤ 0.01, ***: p ≤ 0.001, ****: p ≤ 0.0001, using the student t-test). […] Viable cells are AV/PI double-negative (AV–/PI–, lower left quadrant, Q4), early apoptotic cells are AV single-positive (AV+/PI– upper left quadrant, Q1), late apoptotic cells are AV/PI double-positive (AV+/PI+, upper right quadrant, Q2), and necrotic cells are PI single-positive (AV–/PI+, lower right quadrant, Q3). The sum of early and late apoptotic cell numbers ([…] in %) is indicated in red. D-G: The workflow of the PDAC xenograft experiments in mice is depicted in D. PANC-1 cells (2 × 10^6 cells/mouse) were subcutaneously (s.c.) injected in the right flank of female athymic nude mice. Small tumor nodules appeared 6 days post-engraftment. […] Tumor volumes were measured every second day using a digital caliper. […] At the end of the 2 weeks, mice were sacrificed and tumors were dissected (F).
(§2) For quantification of apoptosis using the CaspaseGlo 3/7 assay (Promega), PANC-1 and PaTu8988T cells were seeded in triplicates in white 96-well plate (5 × 10^3 cells/well) and cultured in the absence or presence of compounds. After 2 h, as soon as the cells had settled, gemcitabine was added or not, and cells were incubated for another 72 h. Subsequently, the caspase3/7 activity was measured using the luminescence-based CaspaseGLO-3/7 assay (Promega). To this end, the CaspaseGlo reagent was subsequently added to the cells at a 1:1 ratio and incubated at room temperature and under agitation for 30 min protected from light. The luminescence measurements were carried out using a microplate reader (Mithras LB 940, Berthold).

PaTu8988T cells [1] = test: CaspaseGlo 3/7 apoptosis assay, PaTu8988T; type: cell-based, human; settings: 72 h
Protocol: as §1, §2

PaTu8988T cells [2] = test: Annexin V/PI flow cytometry apoptosis assay, PaTu8988T; type: cell-based, human; settings: Homo sapiens, PaTu 8988t, 48 h; read-out: Q4, viable cells (AV–/PI–)
Protocol: 6 Effect of small-molecule modulators on gemcitabine-induced apoptosis and tumor growth of PDAC cells. […] Subsequently, the luminescence-based caspase3/7 assay was performed. The activity of caspase 3/7 in treated cells was normalized to the activity measured in untreated cells (dark gray bar), which was set to 1 (mean SD, n = 6 for PANC-1 and n = 4 for PaTu8988T; *: p ≤ 0.05, **: p ≤ 0.01, ***: p ≤ 0.001, using the student t-test). […] After 24 h, gemcitabine (GEM, 1 μM) was added (+) or not (−) for another incubation of 48 h. Subsequently, the apoptotic cell fraction was quantified in % by flow cytometry using FITC-labeled Annexin V (AV) and propidium iodide (PI) staining (in B: mean ± SD, n = 6 for PANC-1 and n = 5 for PaTu8988T; **: p ≤ 0.01, ***: p ≤ 0.001, ****: p ≤ 0.0001, using the student t-test). […] Viable cells are AV/PI double-negative (AV–/PI–, lower left quadrant, Q4), early apoptotic cells are AV single-positive (AV+/PI– upper left quadrant, Q1), late apoptotic cells are AV/PI double-positive (AV+/PI+, upper right quadrant, Q2), and necrotic cells are PI single-positive (AV–/PI+, lower right quadrant, Q3). The sum of early and late apoptotic cell numbers (Q2+Q3 in %) is indicated in red. D-G: The workflow of the PDAC xenograft experiments in mice is depicted in D. PANC-1 cells (2 × 10^6 cells/mouse) were subcutaneously (s.c.) injected in the right flank of female athymic nude mice. […] Tumor volumes were measured every second day using a digital caliper. […] At the end of the 2 weeks, mice were sacrificed and tumors were dissected (F).
For quantification of apoptosis by Fluorescence Activated Cell Sorting (FACS), PANC-1 and PaTu8988T cells were seeded in 6-well plates (250 × 10^3 cells/well) and cultured in the absence or presence of compounds. After 24 h, gemcitabine was added or not for another 48 h. After harvesting and washing, unfixed cells (0.5–1 × 10^6) were incubated with FITC-labeled Annexin V and/or PI (BD Pharmingen) according to the manufacturer’s instructions. All samples were analyzed using a BD FACSCalibur flow cytometer (BD Bioscience). Data were acquired using the CellQuestPro program and analyzed with the FlowJo (FlowJo LLC) software.
After 24 hours, gemcitabine (GEM, 1 µM) was added (+) or not
(-) for another incubation of 48 hours. Subsequently, the apoptotic cell fraction was assessed by flow cytometry using FITC-labeled Annexin V (AV) and propidium iodide (PI) staining and quantified in % (mean ± SD, n=3-4; ns: not significant, *: p ≤0.05, **: p ≤0.01, ***: p ≤0.001, ****: p ≤0.0001, using the student t-test).

PANC-1 xenografts = test: PDAC xenograft mouse model, tumor growth; type: in vivo; settings: female athymic nude mice, intraperitoneal, 2 weeks; 150 mg/kg TR-07 daily, 10 mg/kg gemcitabine every second day; n = 5
[3] = compound 10 μM, after 2 h gemcitabine 10 and 25 nM
[4] = TR-07 10 μM or gemcitabine 10 and 25 nM

| Structure (SMILES) | gemcitabine-induced apoptosis, caspase 3/7 activity, co-treatment (PANC-1 cells; [3]) | gemcitabine-induced apoptosis, caspase 3/7 activity, co-treatment (PaTu8988T cells [1]; [3]) | apoptosis, caspase 3/7 activity, single agent (PANC-1 cells; [4]) | apoptosis, caspase 3/7 activity, single agent (PaTu8988T cells [1]; [4]) | viability at 10 µM (PaTu8988T cells [2]) | tumor growth of PANC-1 xenografts (PANC-1 xenografts) |
| --- | --- | --- | --- | --- | --- | --- |
| CC(C)Oc1ccc(-c2c[nH]cc2CN(C)CCN)cc1 [MS023, reference compound] | diminished | diminished |  |  |  |  |
| Nc1ccn([C@@H]2O[C@H](CO)[C@@H](O)C2(F)F)c(=O)n1 [gemcitabine, reference compound] |  |  | underwent apoptosis in a gemcitabine concentration-dependent manner | underwent apoptosis in a gemcitabine concentration-dependent manner | 78.6% | significantly reduced the tumor growth compared to the control mice |
